# Assay results reported in patent US20260263563A1, “Method of Treatment of a Thoracolumbar Deformity in a Human Subject with Achondroplasia” (Ascendis Pharma Growth Disorders A/S, priority 2023, published 2026).
# Like-named read-outs stand apart in the source and are kept apart here.
# Assays:
# [1] = Description: A population PK model was used to characterize the sparse PK data.
# Blood samples for determination of CNP-38 were acidified immediately after collection, using citrate acid buffer, to stabilize the prodrug in the sample thereby avoiding further liberation of CNP-38 from the prodrug. CNP-38 was determined in plasma (heparin) following protein precipitation and solid phase extraction and analyzed using liquid chromatography and tandem mass spectrometry detection. CNP-38 (38 amino acid peptide) was used as reference material and CNP-38 labelled with deuterium (D30-CNP-38) as internal standard (IS). Positive ions were monitored in multiple-reaction monitoring mode. The quantification was performed using the peak area ratios of analyte versus IS. The calibration curve fitting was done by 1/concentration-weighted linear regression.
# During the trial, sparse blood samples were collected at different time points in the dosing interval, and the concentration of free CNP-38 was determined using the methodology described in example 6.
# The values are provided as pmol/L CNP-38. […] The lower value in the range is the lowest free CNP-38 concentration, also referred to as the trough level or trough concentration. The number of subjects contributing with observations at the specified time interval are: 4, 8, 10 and 6 for the 6, 20, 50 and 100 μg/kg dose groups, respectively.
# [2] = test system: binding antibodies against CNP-38 (and CNP-22)
# Description: All subjects in the trial are being monitored for binding and, if relevant, neutralizing antibodies to CNP. […] Samples are collected in all subjects at screening visit, prior to initial dose, and post-dose at 1, 3, 6, 9 months+every 3 months for the duration of the study. Samples are analyzed using a fully validated anti-CNP antibody assay.
# Prior to analysis of clinical samples, the assay was fully validated following regulatory requirements from both EMAA and FDA. In this approach, biotinylated and ruthenylated CNP-38 were prepared as a master mix. Samples were incubated at minimum required dilution (MRD) in the master mix to form complex and then plated on an MSD streptavidin plate where the biotinylated CNP-38 could also bind. The samples were then detected by the ruthenium labelled CNP-38 within the bound complexes, using an MSD 5600 plate reader. The presence of anti-drug antibody present was determined by comparing the signal to a statistically derived threshold, the assay cut point.
# [3] = test system: prepubertal children with achondroplasia; details: for Overall Scoliosis Incidence, Baseline: baseline (prior to treatment)
# Description: X-rays (radiographs) were taken from subjects in the placebo group and cohort 4 in the Phase 2 Study trials, including those at the thoracolumbar spine (lateral and anterior-posterior/posterior-anterior (AP/PA)) and lower extremity (AP). The lateral X-rays (taken from the placebo group and the 100 μg/kg (cohort 4 group) at baseline and after 52 weeks of treatment were analyzed.
# Methodology: From the spine radiographs, aspects related to spinal stenosis, spinal curvature, and spinal height were measured. To assess the size of the spinal canal in the lumbar region (L1-L5), which is smaller in ACH, interpedicular distance (IPD) and pedicle width (PW) are measured on the anterior-posterior/posterior-anterior (AP/PA) and lateral radiographs, respectively. At each level of the lumbar spine, IPD is measured as the distance between the most medial aspects of the pedicles of the spinal canal, and PW is measured from the posterior vertebral body line to the posterior laminar line. Scoliosis is assessed by measuring Cobb angles in the proximal thoracic, main thoracic, and lumbar regions of the AP/PA spine radiograph. On the lateral spine radiograph, Cobb angles for kyphosis are assessed in the thoracic (TK) and thoracolumbar (TLK) region and for lordosis in the lumbar region (LL). Spinal heights (both thoracic and total) are measured on the AP/PA spine radiograph. • Scoliosis: Cobb angles of the proximal thoracic (T1-T3), main thoracic (T2-L1), and lumbar (L1-L5) regions • Kyphosis: Cobb angles of the thoracic (T5-T12, TK) and thoracolumbar (T10-L2, TLK) regions • Lordosis: Cobb angles of the lumbar (L1-L5, LL) region • Thoracic spine height (T1 to T12) and Total spine height (T1 to S1)
# As many of these parameters vary naturally during growth, published normative data from both healthy and ACH populations are being utilized to calculate Z-scores where possible. For spine kyphosis, data from Lee et al., 2012 (Journal of spinal disorders & techniques. 2012; 25(8):E259-63) and Abousamra et al. 2019 (Spine Deform. 2019 January; 7(1):163-170) were used to calculate Z-scores based on data from healthy and ACH children.
# A decrease of the (Posterior Height/Middle Width) ratio is indicative of a normalization of vertebral morphology.
# [4] = 50 and 100 μg/kg vs placebo, 52 weeks
# [5] = cohorts 3 and 4 vs placebo, 52 weeks, initial data
# [6] = single patient, after 52 weeks treatment
# [7] = single patient, after 52 weeks treatment (100 μg/kg/week)
# [8] = single patient, week 52, 100 μg/kg/week
substance,measurement,setting,value
Navepegritide [Compound (1)],Estimated half-life for free CNP,[1]; 6 μg/kg/week,101 h
same,"Free CNP-38, Mean (SD)","[1]; 6 μg/kg/week, 6.5 to 7.5 days after last dose",1.7 (0.2) pmol/L
same,"Free CNP-38, Median (range)","[1]; 6 μg/kg/week, samples 6.5 to 7.5 days after last dose (trough), 4 subjects",1.7 (1.4-1.9) pmol/L
same,Estimated half-life for free CNP,[1]; 20 μg/kg/week,106 h
same,"Free CNP-38, Mean (SD)","[1]; 20 μg/kg/week, 6.5 to 7.5 days after last dose",2.9 (9.7) pmol/L
same,"Free CNP-38, Median (range)","[1]; 20 μg/kg/week, 6.5 to 7.5 days after last dose, 8 subjects",2.9 (1.6-4.2) pmol/L
same,Estimated half-life for free CNP,[1]; 50 μg/kg/week,108 h
same,"Free CNP-38, Mean (SD)","[1]; 50 μg/kg/week, 6.5 to 7.5 days after last dose",7.2 (2.5) pmol/L
same,"Free CNP-38, Median (range)","[1]; 50 μg/kg/week, 6.5 to 7.5 days after last dose, 10 subjects",6.5 (4-16.9) pmol/L
same,Estimated half-life for free CNP,[1]; 100 μg/kg/week,110 h
same,"Free CNP-38, Mean (SD)","[1]; 100 μg/kg/week, 6.5 to 7.5 days after last dose",14 (4.2) pmol/L
same,"Free CNP-38, Median (range)","[1]; 100 μg/kg/week, 6.5 to 7.5 days after last dose, 6 subjects",13.8 (9.4-23) pmol/L
same,"Free CNP-38, Median (range)","[1]; 150 μg/kg/week, simulated with a population PK model",22.3 (19.7-25) pmol/L
same,exposure across dosing cohorts,"[1]; 6, 20, 50 and 100 μg/kg",dose related increase in exposure
same,"Predicted median free CNP Cmax, Median (9-95th percentile)","[1]; BW 10 kg, 6 μg/kg/week",2.9 (1.6-5.0) pg/ml
same,"Predicted median free CNP Cmax, Median (9-95th percentile)","[1]; BW 10 kg, 20 μg/kg/week",10.4 (5.8-18.9) pg/ml
same,"Predicted median free CNP Cmax, Median (9-95th percentile)","[1]; BW 10 kg, 50 μg/kg/week",26.5 (15.2-48.1) pg/ml
same,"Predicted median free CNP Cmax, Median (9-95th percentile)","[1]; BW 10 kg, 100 μg/kg/week",53.1 (30.9-96.4) pg/ml
same,"Predicted median free CNP Cmax, Median (9-95th percentile)","[1]; BW 35 kg, 6 μg/kg/week",1.8 (1.1-3.3) pg/ml
same,"Predicted median free CNP Cmax, Median (9-95th percentile)","[1]; BW 35 kg, 20 μg/kg/week",6.6 (3.8-12.6) pg/ml
same,"Predicted median free CNP Cmax, Median (9-95th percentile)","[1]; BW 35 kg, 50 μg/kg/week",18.3 (10.3-31.5) pg/ml
same,"Predicted median free CNP Cmax, Median (9-95th percentile)","[1]; BW 35 kg, 100 μg/kg/week",36.6 (20.2-65.9) pg/ml
same,Preliminary mean free CNP level,"[1]; Cohort 1, 6 μg/kg, WEEK 0, 0.96 days post 1st dose",1.86 pmol/L
same,Preliminary mean free CNP level,"[1]; Cohort 1, 6 μg/kg, WEEK 4, 27.98 days, all observations below LLOQ, set to LLOQ ([…])",1.38 pmol/L
same,Preliminary mean free CNP level,"[1]; Cohort 1, 6 μg/kg, WEEK 8, 55.97 days",1.68 pmol/L
same,Preliminary mean free CNP level,"[1]; Cohort 1, 6 μg/kg, WEEK 12, 79.02 days",1.85 pmol/L
same,Preliminary mean free CNP level,"[1]; Cohort 1, 6 μg/kg, WEEK 26, 181.99 days",1.48 pmol/L
same,Preliminary mean free CNP level,"[1]; Cohort 1, 6 μg/kg, WEEK 39, 271.94 days",2.02 pmol/L
same,Preliminary mean free CNP level,"[1]; Cohort 1, 6 μg/kg, WEEK 52, 363.90 days",1.58 pmol/L
same,Preliminary mean free CNP level,"[1]; Cohort 2, 20 μg/kg, WEEK 0, 1.01 days",3.49 pmol/L
same,Preliminary mean free CNP level,"[1]; Cohort 2, 20 μg/kg, WEEK 4, 27.94 days",3.27 pmol/L
same,Preliminary mean free CNP level,"[1]; Cohort 2, 20 μg/kg, WEEK 8, 56.27 days",3.79 pmol/L
same,Preliminary mean free CNP level,"[1]; Cohort 2, 20 μg/kg, WEEK 12, 84.00 days",3.84 pmol/L
same,Preliminary mean free CNP level,"[1]; Cohort 2, 20 μg/kg, WEEK 26, 182.00 days",2.77 pmol/L
same,Preliminary mean free CNP level,"[1]; Cohort 2, 20 μg/kg, WEEK 39, 273.47 days",5.19 pmol/L
same,Preliminary mean free CNP level,"[1]; Cohort 3, 50 μg/kg, WEEK 0, 1.00 days",10.58 pmol/L
same,Preliminary mean free CNP level,"[1]; Cohort 3, 50 μg/kg, WEEK 4, 27.99 days",7.29 pmol/L
same,Preliminary mean free CNP level,"[1]; Cohort 3, 50 μg/kg, WEEK 8, 56.00 days",9.24 pmol/L
same,Preliminary mean free CNP level,"[1]; Cohort 3, 50 μg/kg, WEEK 12, 83.91 days",7.62 pmol/L
same,Preliminary mean free CNP level,"[1]; Cohort 4, 100 μg/kg, WEEK 0, 0.99 days",15.29 pmol/L
same,half-life for free CNP,"[1]; population PK model, weekly s.c. dosing",~ 110 hours
same,exposure to free CNP,[1]; weekly s.c. dosing,Sustained exposure to free CNP was observed
same,anti-CNP binding antibodies,[2]; 1 to 9 months of repeated weekly exposure,No anti-CNP binding antibodies have been detected
same,treatment emergent anti-CNP antibodies,[2]; 57 patients followed for up to 65 weeks,no treatment emergent anti-CNP antibodies were detected
same,"post-dose samples, anti-CNP antibodies","[2]; samples at 1, 3, 6, 9 months + every 3 months",confirmed negative
same,"TLK Z-score (Healthy), Week 52 Change from Baseline (Mean ± SD)","[3]; 100 μg/kg/week, n 5, p < 0.05 vs placebo (ANCOVA), placebo −0.19 (0.318)",−1.004 (0.614)
same,"TLK Z-score (ACH), Week 52 Change from Baseline (Mean ± SD)","[3]; 100 μg/kg/week, n 6, p < 0.05 vs placebo (ANCOVA), placebo −0.052 (0.242)",−0.416 (0.412)
same,"TLK, Week 52 Change from Baseline (Mean ± SD)","[3]; 100 μg/kg/week, n 6, placebo −[…] (2.61)",−7.17 (4.94) degrees
same,interpedicular distance (IPD),[3]; [4],no clear effect
same,pedicular width (PW),[3]; [4],trend for patients on treatment to have an increase
same,"Overall Scoliosis Incidence, After 52 weeks of Treatment","[3]; Cohort 3, 50 μg/kg",0 out of 9
same,"Overall Scoliosis Incidence, Baseline","[3]; Cohort 3, 50 μg/kg",3 out of 9
same,"Overall Scoliosis Incidence, After 52 weeks of Treatment","[3]; Cohort 4, 100 μg/kg",1 out of 9
same,"Overall Scoliosis Incidence, Baseline","[3]; Cohort 4, 100 μg/kg",3 out of 9
same,thoracolumbar kyphosis,[3]; cohort 4 after 52 weeks of treatment,statistically significant reduction
same,kyphosis Cobb Angle,[3]; [5],trend for a dose dependent reduction
same,scoliosis main thoracic Cobb Angle,[3]; [5],trend for a dose dependent reduction
same,lumbar lordosis,[3]; phase 2 and open label extension trial,slight trend for an increase
same,"Patient Angle, thoracic kyphosis (TK)","[3]; single patient one, baseline",11.6 degrees
same,"L1 vertebra LW, change from baseline",[3]; [6],Δ4.1 mm
same,"L1 vertebra MH, change from baseline",[3]; [6],Δ1.4 mm
same,"L1 vertebra MW, change from baseline",[3]; [6],Δ5.9 mm
same,"L1 vertebra PH, change from baseline",[3]; [6],Δ1.5 mm
same,L1 vertebra LW (Lower Width),[3]; [7],22.9 mm
same,L1 vertebra MH (Middle Height),[3]; [7],15.0 mm
same,L1 vertebra MW (Middle Width),[3]; [7],14.6 mm
same,L1 vertebra PH (Posterior height),[3]; [7],15.8 mm
same,L1 vertebra PH/MW,[3]; [7],108 mm
same,"L1 vertebra PH/MW, change from baseline","[3]; single patient, after 52 weeks treatment, [~80@T12/12]",Δ−56 [~80@T12/12] mm
same,L1 vertebra LW (Lower Width),"[3]; single patient, baseline",18.8 mm
same,L1 vertebra MH (Middle Height),"[3]; single patient, baseline",13.6 mm
same,L1 vertebra MW (Middle Width),"[3]; single patient, baseline",8.7 mm
same,L1 vertebra PH (Posterior height),"[3]; single patient, baseline",14.3 mm
same,L1 vertebra PH/MW,"[3]; single patient, baseline",164 mm
same,"Patient Angle, lumbar lordosis (LL)","[3]; single patient, baseline",58.3 degrees
same,"Patient Angle, thoraco-lumbar kyphosis (TLK)","[3]; single patient, baseline",24.0 degrees
same,apical wedging and shape of L1 vertebra on radiographs,"[3]; single patient, baseline vs 52 weeks of treatment",noted decrease in apical wedging and normalization of the L1 vertebra
same,Patient Z-score TK3,"[3]; single patient, baseline, reference population 3 (Abousamra 2019) 20.0 ± 12.5",−0.7
same,Patient Z-score TLK3,"[3]; single patient, baseline, reference population 3, 18.5 ± 13.2",0.4
same,Patient Z-score LL3,"[3]; single patient, baseline, reference population 3, 66.7 ± 17.5",−0.5
same,Patient Z-score TLK2,"[3]; single patient, baseline, reference population 5.0 ± 7.2",2.6
same,Patient Z-score TK2,"[3]; single patient, baseline, reference population 31.6 ± 9.2",−2.2
same,Patient Z-score LL2,"[3]; single patient, baseline, reference population 44.4 ± 9.4",1.5
same,"Patient Angle, lumbar lordosis (LL)",[3]; [8],60.2 degrees
same,"Patient Angle, thoracic kyphosis (TK)",[3]; [8],12.6 degrees
same,"Patient Angle, thoraco-lumbar kyphosis (TLK)",[3]; [8],9.1 degrees
same,Patient Z-score TK2,"[3]; single patient, week 52, 100 μg/kg/week, reference 31.6 ± 9.2",−2.1
same,Patient Z-score TLK2,"[3]; single patient, week 52, reference 5 ± 7.2",0.6
same,Patient Z-score LL2,"[3]; single patient, week 52, reference 44.4 ± 9.4",1.7
same,Patient Z-score TLK3,"[3]; single patient, week 52, reference population 3, 18.5 ± 12.0",−0.6
same,Patient Z-score TK3,"[3]; single patient, week 52, reference population 3, 19.7 ± 13.2",−0.5
same,Patient Z-score LL3,"[3]; single patient, week 52, reference population 3, 66.0 ± 15.5",−0.4
